Assay results: article PMC10683027, “Discovery of tert-Butyl Ester Based 6-Diazo-5-oxo-L-norleucine Prodrugs for Enhanced Metabolic Stability and Tumor Delivery” (Journal of Medicinal Chemistry, 2023)
Converted amounts (≈) assume the structure as drawn. Where two headings read alike, the source gives them in different places. Blank lines part the entries; values can stand above or below the compound they belong to.

Assays:
in vitro [1] = settings: CES1–/–, mouse, plasma
Method: (§2) Briefly, intestinal tissue was homogenized over ice via probe sonication with 1:9 tissue to potassium phosphate buffer (0.1 M) conditions. Prodrugs were spiked in plasma or tissue homogenate at 10 μM final concentration with 0.2% DMSO v/v and incubated in triplicate for 0 and 60 min time points. At each time point, 100 μL of the sample was precipitated with 300 μL of methanol containing internal standard (IS; losartan, 0.5 μM). Precipitated samples were vortexed (30 s) and centrifuged at 10000g for 10 min at 4 °C. After centrifugation, 100 μL of supernatant was aliquoted and submitted for analysis. Prodrug disappearance over time was monitored by liquid chromatography–mass spectrometry (LC–MS) through peak area ratios between the analyte and internal standard.
(§3) Chromatographic analysis was performed on a Dionex ultra-high-performance LC system coupled with a Q Exactive Focus Orbitrap mass spectrometer (Thermo Fisher Scientific Inc., Waltham, MA). Separation was achieved using an Agilent Eclipse Plus column (100 × 2.1 mm i.d.; maintained at 35 °C) packed with a 1.8 μm C18 stationary phase. The mobile phase used was composed of 0.1% formic acid in acetonitrile and 0.1% formic acid in water with gradient elution, starting with 2.5% organic phase (from 0 to 0.25 min) and linearly increasing to 99% (from 0.25 to 1.25 min) and re-equilibrating to 2.5% by 4 min. The total run time for each analyte was 5 min. Pumps were operated at a flow rate of 0.4 mL/min. The mass spectrometer controlled by Xcalibur software 4.0.27.13 (Thermo Scientific) was operated with an HESI ion source in positive ionization mode for all compounds. Compounds were identified in the full-scan mode with m/z ranging from 75 to 1125.

[2] = CES1–/–, mouse, 1 h, 10 μM
Method: as §2, §3

[3] = CES1–/–, mouse, 1 h, 10 μM; remark: listed apart in the source
Method: as §2, §3

in vitro [4] = settings: CES1–/–, mouse, tissue homogenate
Method: as §2, §3

[5] = parameters: method as in PMID 36383674; settings: cited from earlier work
P493B lymphoma cells = test: Cell viability assay; format: cell-based; settings: Homo sapiens, 72 h, 72 h incubation
Method: Cell proliferation assays were performed as we have previously described.[19] Briefly, P493B lymphoma cells were plated in 96-well plates at a density of 20 000 cells/well in a final volume of 100 μL of growth media. P11, or DRP-104, was added to cells in half-log serial dilutions with a final concentration of 0.2% DMSO. Cells were allowed to proliferate for 72 h, and thereafter, 20 μL of CellTiter 96 AQueous (Promega no. 3580) was added per well and incubated for 2 h. Absorbance was measured at 490 nm. Relative cell viability was calculated from the difference between untreated cell wells (100%) and media well without cells (0%).

[6] = parameters: method as in printed; settings: background statement; ref not given; cited from earlier work
[7] = tested on: P493B lymphoma cells suspended in human plasma; test: Human tumor cell to plasma partitioning assay; format: cell-based; settings: 20 μM; 1 h; human plasma fraction
Method: Human tumor cell to plasma partitioning assays were conducted as we have previously described.[25] Briefly, P493B lymphoma cells were grown at 37 °C, in a humidified atmosphere with 5% CO2. Cell confluency was estimated, and cells were harvested after achieving >80% confluency and centrifuged at 200g for 5 min at 25 °C. The obtained cell pellet was resuspended in 20 mL of Dulbecco’s phosphate-buffered saline (DPBS; Gibco, USA, cat. no. 14-190-144) maintained at 37 °C, and cell count was determined using an automated cell counter (Bio-Rad, USA). Cell suspension in DPBS was further centrifuged at 200g for 5 min at 25 °C, and the cell pellet was resuspended in human plasma (Innovative Research, USA) for partitioning assessment. The final cell density after resuspending in plasma was 10 million cells/mL of plasma. Partitioning assessment was performed in triplicate. Preincubated (37 °C for 5 min) cell–plasma suspension was spiked with DRP-104 or P11 at a final concentration of 20 μM and incubated at 37 °C for 1 h. Following incubation, a 1 mL aliquot of cell–plasma suspension was centrifuged at 1000g for 5 min at 4 °C, and supernatant plasma as well as the cell pellet was collected and stored at −80 °C until bioanalysis. Both plasma and cell pellet fractions were analyzed for intact prodrug and DON levels. […]

[8] = Chemical (aqueous) stability in buffer pH 7.4; format: physicochemical; settings: 10 μM, pH 7.4 PBS, 37 °C, 24 h, HRMS/LCMS
Method: (§1) The aqueous solubility was determined as previously reported with minor modifications.[48] Briefly, an excess amount of P11 or DRP-104 was added to PBS buffer (pH 7.4) and sonicated for 1 h at 37 °C to ensure saturation. After 1 h, the solution was filtered (0.45 μm PTFE), and the filtrate was diluted appropriately, and the concentration of each analyte was determined via LC–MS. Chemical stabilities of DRP-104 and P11 were done as previously described[18] with modifications. For chemical stability, prodrugs were spiked (10 μM) in buffer at pH 7.4 and incubated at 37 °C for 24 h. Prodrug disappearance was monitored using the developed HRMS methods.

[9] = Metabolic stability in mouse intestinal homogenate (GIh)
Method: as §2, §3

[10] = Metabolic stability in mouse plasma
Method: as §2, §3

[11] = Aqueous solubility assay in PBS buffer (pH 7.4); format: physicochemical; settings: PBS buffer pH 7.4; 37 °C; 1 h
Method: as §1

hematologic malignancies = tested on: hematologic malignancies; parameters: method as in PMID 13918321; settings: DON combination with standard 6-mercaptopurine (6-MP) therapy; cited from earlier work
[12] = parameters: method as in PMID 13489662; settings: 2 weeks or more of DON therapy; cited from earlier work
[13] = supplementary CSV, unit not given, matches Table 1 % remaining at 1 h, in %

Structure (SMILES): CC(C)(C)OC(=O)[C@H](CCC(=O)C=[N+]=[N-])NC(=O)[C@H](Cc1c[nH]c2ccccc12)NC(=O)C12CCN(CC1)CC2 [Prodrug P8, tert-Butyl (S)-2-((S)-3-(1H-Indol-3-yl)-2-(quinuclidine-4-carboxamido)propanamido)-6-diazo-5-oxohexanoate]
remaining at 1 h, 10 µM (in vitro [1]): 106 ± 2%
Plasma [2]: 106 ± 2
Intestinal homogenate [3]: 71 ± 0
remaining at 1 h, 10 µM (in vitro [4]): 71%

EC50 (P493B lymphoma cells): ~1000 nM
chemical stability in buffer [8]: remained intact without any degradation
chemical stability in buffer ([8]; listed as DRP 104): no degradation
remaining at 1 h, 10 µM ([9]; CES1–/–, mouse, intestinal homogenate): 0%
Intestinal homogenate [9, 13]: 0 ± 0
remaining at 1 h, 10 µM ([10]; CES1–/–, mouse, plasma): 94 ± 1%
Plasma [10, 13]: 94 ± 1
solubility at 1 h [11]: 240 ± 30 µg/mL (≈ 544 µM)
Structure (SMILES): CC(=O)N[C@@H](Cc1c[nH]c2ccccc12)C(=O)N[C@@H](CCC(=O)C=[N+]=[N-])C(=O)OC(C)C [DRP-104, isopropyl (S)-2-((S)-2-acetamido-3-(1H-indol-3-yl)-propanamido)-6-diazo-5-oxo-hexanoate, reference compound]
fold greater delivery of DON to tumor versus GI tissues [5]: 11
aqueous solubility (intrinsic) [6]: < 1000 µg/mL
stability and DON release in human plasma [7]: stable in human plasma with no DON release

Structure (SMILES): [N-]=[N+]=CC(=O)CC[C@H](N)C(=O)O [DON, 6-Diazo-5-oxo-L-norleucine]
patients with complete bone marrow remissions (hematologic malignancies): 42%
patients with disease stability or regression [12]: 66%
